Results published in patent publication US4307036A, “Method for preparing a mixture of stereoisomers of α-cyano-3-phenoxybenzyl 2-(4-substituted-phenyl)isovalerates” (Sumitomo Chemical Company, Limited, priority 1978, dated 1981).
Converted amounts (≈) assume the structure as drawn.

Experiments:
[1] = Insecticidal and acaricidal activity, general statements; assay type: in vivo; conditions: diastereomers separated by recrystallization from hexane
[2] = system: housefly (Musca domestica); experiment: Insecticidal activity of methoxy and ethoxy esters on housefly, topical application, 24 h (Test Example 8); assay type: in vivo; conditions: CSMA-strain female adults, 0.5 μl to ventral thorax
Procedure: Insecticidal activity of S phenylisovalerates (methoxy and ethoxy esters) on housefly (Musca domestica)
(§1) Each of S phenylisovalerate Y's and Y-rich S phenylisovalerates obtained in Examples 21 to 24 and common racemates was diluted with acetone to a pre-determined concentration, and 0.5 μl of the solution was applied to the ventral thorax of CSMA-strain housefly female adults by means of a microsyringe. The adults were then liberated in a plastic cup (diameter 11 cm) wherein a bait (3% sugar water) was placed. The dead and alive were examined after 24 hours, and the values of LD50 were obtained.

[3] = system: Pea aphids (Acyrthosiphon pisum Harris); experiment: Spray test of difluoromethoxy esters on pea aphid (Test Example 6 B); assay type: in vivo
Procedure: (§2) Insecticidal activity of α-cyano-3-phenoxybenzyl 2-(4-difluoromethoxyphenyl)isovalerates on housefly, pea aphid and corn earworm
B. Pea Aphid: Pea aphids (Acyrthosiphon pisum Harris) were tested by placing about 100 aphids on broad bean plants. The plants were sprayed with dilutions of acetone solution of test compound into water containing an emulsifier and held in containers under laboratory conditions for 18 to 20 hours at which time the living aphids in the containers were counted. The tests were conducted employing several different dosage rates of each test compound.
(§3) In each instance, the toxicity of the compound of the invention was compared to that of a standard pesticide (Parathion), its relative toxicity then being expressed in terms of the relationship between the amount of compound of the invention and the amount of the standard pesticide required to produce the same percentage (50) of mortality in the test insects or acarine. By assigning the standard pesticide an arbitrary rating of 100, the toxicities of the compounds of the invention were expressed in terms of the toxicity indexes, which compares the toxicity of the compounds of the invention with that of the standard pesticide.

[4] = system: Houseflies (Musca domestica Linne); experiment: Spray test of difluoromethoxy esters on housefly (Test Example 6 A); assay type: in vivo
Procedure: as §2
A. Housefly: Houseflies (Musca domestica Linne) were tested by placing 50 4- to 5-day old houseflies into spray cages and spraying with 0.6 ml of a solution of test compound. After spraying, the flies were anesthetized with CO2 and transferred to a recovery cage containing a milk pad for food. The cages were held for 18-20 hours after which mortality counts were made. Both dead and moribund were counted. The tests were conducted employing several different dosage rates of each test compound.
as §3

[5] = system: Corn earworm larvae (Heliothis zea Boddie); experiment: Spray test of difluoromethoxy esters on corn earworm larvae (Test Example 6 C); assay type: in vivo
Procedure: as §2
C. Corn Earworm: Corn earworm larvae (Heliothis zea Boddie) were tested by spraying broad bean plants with dilutions of acetone solution of test compound into water containing an emulsifier. Immediately after spraying, 5 larvae were transferred to each plant and held for 44-46 hours, at which time the dead and moribund larvae were counted. The tests were conducted employing several different dosage rates for each test compound.
as §3

[6] = system: tobacco cut worm (Spodoptera litura); experiment: Insecticidal activity of difluoromethoxy esters on tobacco cut worm, leaf dip, 24 h (Test Example 7); assay type: in vivo; conditions: foliar, read-out: LC50 (concentration required for 50% death)
Excerpt: Insecticidal activity of α-cyano-3-phenoxybenzyl 2-(4-difluoromethoxyphenyl)isovalerates on tobacco cut worm (Spodoptera litura)
Emulsifiable concentrates of difluoromethoxy ester Y and Y-rich difluoromethoxy ester formulated according to Preparation Example 12 and a 20% emulsifiable concentrate of common difluoromethoxy ester formulated in the same manner were each diluted with water to a predetermined concentration, and mixed with a spreader (Shin-Rino, a registered trademark of Nippon Noyaku Co.) of 3,000 times by weight based on the diluted liquor.
(§4) The dried leaves were placed in a plastic cup (diameter 10 cm, height 4 cm) at a rate of 2 leaves/cup, and the fourth instar larvae of tobacco cut worms were liberated therein. The dead and alive were examined after 24 hours and the values of LC50 (concentration required for 50% death) were obtained.
(§5) Experiments of three replications were carried out using 10 larvae per group.

[7] = system: tobacco cut worm (Spodoptera litura); experiment: Insecticidal activity of fenvalerates on tobacco cut worm, leaf dip, 24 h (Test Example 1); assay type: in vivo; conditions: for Relative Efficacy: Activity of Fenvalerate (common product) was taken as 100; for LC50: Spodoptera litura, foliar, 24 h, read-out: LC50 (concentration required for 50% death); for LC50 / LC50 (concentration required for 50% death): fourth instar larvae, 24 hours, 20% emulsifiable concentrate diluted; for LC50 (concentration required for 50% death): 1440 min
Excerpt: Insecticidal activity of fenvalerates on tobacco cut worm (Spodoptera litura)
Fenvalerate Y obtained in Example 4, fenvalerate Y-rich fenvalerate obtained in Examples 5 and 6 and common fenvalerate were formulated into a 20% emulsifiable concentrate as usual (Composition: above pesticide 20%; xylene 70%; and Sorpol 3005X (a registered trademark of Toho Kagaku Co.) 10%). These emulsifiable concentrates were each diluted with water to a pre-determined concentration, and mixed with a spreader (Shin-Rino, a registered trademark of Nippon Noyaku Co.) of 3,000 times by weight based on the diluted liquor.
as §4, §5

[8] = system: housefly (Musca domestica); experiment: Insecticidal activity of fenvalerates on housefly, topical application, 24 h (Test Example 2); assay type: in vivo; conditions: for Relative Efficacy: Activity of Fenvalerate (common product) was taken as 100; for LD50: CSMA-strain female adults, 0.5 μl to ventral thorax, 24 hours
Procedure: Insecticidal activity of fenvalerates on housefly (Musca domestica)
as §1, with “pesticide used” for “of S phenylisovalerate Y's and Y-rich S phenylisovalerates obtained”, “4” for “21 to 24”, “5” for “common racemates”

[9] = Solubility, general statement; assay type: physicochemical; conditions: compared with fenvalerate Aα
[10] = reported in literature; cited from earlier work
[11] = Parathion = 100, 50% mortality, 18 to 20 hours, * High Knockdown
[12] = Parathion = 100, 50% mortality, 18-20 hours, * High Knockdown
[13] = Parathion = 100, 50% mortality, 44-46 hours, * High Knockdown
[14] = fourth instar larvae, 24 hours, emulsifiable concentrate diluted

For `C#CC(OC(=O)C(c1ccc(Cl)cc1)C(C)C)c1cccc(Oc2ccccc2)c1` (stereo not drawn) [diastereomer (m.p. 51°-52° C.), α-ethynyl-3-phenoxybenzyl 2-(4-chlorophenyl)isovalerate], the insecticidal activity [1] was “higher insecticidal activity”.

Work on `CCOc1ccc(C(C(=O)OC(C#N)c2cccc(Oc3ccccc3)c2)C(C)C)cc1` (stereo not drawn) [Y-Rich Ethoxy Ester, α-cyano-3-phenoxybenzyl 2-(4-ethoxyphenyl)isovalerate] yielded an LD50 [2] of 0.46 μg/housefly.

In the case of `CC(C)C(C(=O)OC(C#N)c1cccc(Oc2ccccc2)c1)c1ccc(OC(F)F)cc1` (racemic) [Common Difluoromethoxy Ester, α-cyano-3-phenoxybenzyl 2-(4-difluoromethoxyphenyl)isovalerate], the “Toxicity Index” value [3, 11] is reported as 582, the “Toxicity Index” value [4, 12] is reported as 219 and the “Toxicity Index” value [5, 13] is reported as 773. It also gave an LC50 [6, 14] of 23 µg/mL (≈ 50.9 µM).

In the case of `CC(C)C(C(=O)OC(C#N)c1cccc(Oc2ccccc2)c1)c1ccc(Cl)cc1` (stereo not shown) [Example 5], the “Relative Efficacy” value [7] is reported as 172, the LC50 [7] is reported as 4.3 µg/mL (≈ 10.2 µM) and the “Relative Efficacy” value [8] is reported as 172. The LD50 [8] was 0.018 μg/housefly.

For `CC(C)[C@H](C(=O)O[C@H](C#N)c1cccc(Oc2ccccc2)c1)c1ccc(Cl)cc1` (relative stereo) [fenvalerate Y], the solubilities [9] is given as “greater than those of fenvalerate Aα” and the “insecticidal and acaricidal activity” value [10] is given as “highly active pesticide”.

With `C#CC(OC(=O)C(c1ccc(Cl)cc1)C(C)C)c1cccc(Oc2ccccc2)c1` (stereo not drawn) [diastereomer having a melting point of 87° to 88° C., α-ethynyl-3-phenoxybenzyl 2-(4-chlorophenyl)isovalerate] the insecticidal activity [1] was “very weak insecticidal activity”.

In the case of `CC(C)[C@H](C(=O)O[C@@H](C#N)c1cccc(Oc2ccccc2)c1)c1ccc(OC(F)F)cc1` (relative stereo) [Same, X Isomer Pair, α-cyano-3-phenoxybenzyl 2-(4-difluoromethoxyphenyl)isovalerate], the “Toxicity Index” value [3, 11] is reported as 45, the “Toxicity Index” value [4, 12] is reported as 47 and the “Toxicity Index” value [5, 13] is reported as 106.

`CCOc1ccc(C(C(=O)OC(C#N)c2cccc(Oc3ccccc3)c2)C(C)C)cc1` (racemic) [Common Ethoxy Ester (racemate), α-cyano-3-phenoxybenzyl 2-(4-ethoxyphenyl)isovalerate] showed an LD50 [2] of 0.54 μg/housefly.

For `CC(C)[C@H](C(=O)O[C@H](C#N)c1cccc(Oc2ccccc2)c1)c1ccc(OC(F)F)cc1` (relative stereo) [Same, Y Isomer Pair, α-cyano-3-phenoxybenzyl 2-(4-difluoromethoxyphenyl)isovalerate], the “Toxicity Index” value ([3]; in vivo) was 1273, the “Toxicity Index” value ([4]; in vivo) was 1100 and the “Toxicity Index” value ([5]; in vivo) was 1544.

In the case of `CC(C)[C@H](C(=O)O[C@H](C#N)c1cccc(Oc2ccccc2)c1)c1ccc(Cl)cc1` [fenvalerate Aα, (S)-α-cyano-3-phenoxybenzyl (S)-2-(4-substituted-phenyl)isovalerate], the “insecticidal and acaricidal activity” value [10] is listed as “the most active stereoisomer of the four”.

For `CC(C)C(C(=O)OC(C#N)c1cccc(Oc2ccccc2)c1)c1ccc(Cl)cc1` (stereo not drawn) [Fenvalerate (common product), α-Cyano-3-phenoxybenzyl 2-(4-chlorophenyl)isovalerate, reference compound], the “Relative Efficacy” value [7] was 100, the “LC50 (concentration required for 50% death)” value [7] was 7.4 ppm and the “Relative Efficacy” value [8] was 100. For the same compound, the LD50 [8] was 0.031 μg/housefly.

In the case of `CC(C)C(C(=O)OC(C#N)c1cccc(Oc2ccccc2)c1)c1ccc(OC(F)F)cc1` (stereo not drawn) [Y-Rich Difluoromethoxy Ester, α-cyano-3-phenoxybenzyl 2-(4-difluoromethoxyphenyl)isovalerate], the LC50 [6, 14] is reported as 14 µg/mL (≈ 31 µM).

`COc1ccc(C(C(=O)OC(C#N)c2cccc(Oc3ccccc3)c2)C(C)C)cc1` (racemic) [Common Methoxy Ester (racemate), α-cyano-3-phenoxybenzyl 2-(4-methoxyphenyl)isovalerate] showed an LD50 [2] of 0.35 μg/housefly.

In the case of `CCOc1ccc([C@@H](C(=O)O[C@H](C#N)c2cccc(Oc3ccccc3)c2)C(C)C)cc1` (relative stereo) [Ethoxy Ester Y, α-cyano-3-phenoxybenzyl 2-(4-ethoxyphenyl)isovalerate], the LD50 [2] is reported as 0.28 μg/housefly.

In the case of `CC(C)[C@H](C(=O)O[C@H](C#N)c1cccc(Oc2ccccc2)c1)c1ccc(Cl)cc1` (relative stereo) [Example 4], the “Relative Efficacy” value [7] is reported as 195, the LC50 [7] is reported as 3.8 µg/mL (≈ 9.05 µM) and the “Relative Efficacy” value [8] is reported as 207. The LD50 [8] was 0.015 μg/housefly.

`CC(C)[C@H](C(=O)O[C@H](C#N)c1cccc(Oc2ccccc2)c1)c1ccc(OC(F)F)cc1` (relative stereo) [Difluoromethoxy Ester Y, α-cyano-3-phenoxybenzyl 2-(4-difluoromethoxyphenyl)isovalerate] showed an LC50 ([6]; 24 h) of 12 µg/mL (≈ 26.6 µM).

With `COc1ccc([C@@H](C(=O)O[C@H](C#N)c2cccc(Oc3ccccc3)c2)C(C)C)cc1` (relative stereo) [Methoxy Ester Y, α-cyano-3-phenoxybenzyl 2-(4-methoxyphenyl)isovalerate] the LD50 [2] was 0.17 μg/housefly.

In the case of `COc1ccc(C(C(=O)OC(C#N)c2cccc(Oc3ccccc3)c2)C(C)C)cc1` (stereo not drawn) [Y-Rich Methoxy Ester, α-cyano-3-phenoxybenzyl 2-(4-methoxyphenyl)isovalerate], the LD50 [2] is reported as 0.20 μg/housefly.

With `CC(C)C(C(=O)OC(C#N)c1cccc(Oc2ccccc2)c1)c1ccc(Cl)cc1` (stereo not shown) [Example 6] the “Relative Efficacy” value [7] was 125 and the “LC50 (concentration required for 50% death)” value [7] was 5.9 ppm.
